Assay results published in patent US11632953B2, “Method for controlling hematophagous or sap-feeding arthropods” (Board of Supervisors of Louisiana State University and …, priority 2016, dated 2023).
Converted amounts (≈) assume the structure as drawn. Read-outs that look alike come from different tables or passages of the source.

How the values were obtained:
AnKir1 = AnKir1 (Anopheles gambiae, UniProt A0A075M2J8); experiment: thallium (Tl+) flux assay; type: cell-based
Method: The thallium flux assay is an in vitro method of measuring conductance through a potassium ion channel. Potassium channels are also permeable to thallium ions. The modulation of a K^+ channel will thus increase or decrease thallium ion flow through the channel and thus, alter the observed fluorescence of a thallium-specific indicator dye.
After 1 hr incubation at room temperature, the dye-loading solution was washed from the plates and replaced with 20 μL/well of assay buffer. The plates were transferred to a Hamamatsu Functional Drug Screening System 6000 (FDSS6000; Hamamatsu, Tokyo, Japan), where 20 μL/well of each of the test compounds in assay buffer was added and allowed to incubate with the cells for 20 min. After incubation, a baseline recording was collected at 1 Hz for 10 s (excitation 470±20 nm, emission 540±30 nm); a thallium stimulus buffer was then added (10 μL/well), and data were then collected for an additional 4 min. […] To ensure the small-molecule vehicle DMSO had no direct effect on AnKir1-dependent Tl^+ flux, the assay's tolerance to different doses of DMSO was evaluated. The robustness and reproducibility of the assay was determined by comparing Tl^+ flux through tetracycline-induced and tetracycline-free cells. The Z′ value was calculated as:
Z′=1−(3SDp+3SDn)/|meanp+meann| where SD is standard deviation, and p and n are control and uninduced flux values, respectively. To compare the effect of DMSO on AnKir1-mediated Tl^+ flux, a one-way ANOVA was performed with a Tukey's multiple comparison test. Prism software (GraphPad Software) was used to generate CRC from Tl^+ flux. Half-inhibition concentration (IC50) values were calculated from fits using a four parameter logistic equation.
Test compounds were transferred to daughter, 384-well polypropylene plates (Greiner Bio-One, Monroe, N.C.) with an Echo555 liquid handler (Labcyte, Sunnyvale, Calif.), and then diluted into assay buffer to generate a 2× stock in 0.6% DMSO (0.3% final). […] Concentration-response curves (CRCs) were generated by screening compounds at 3-fold dilution series (1 nM-30 μM).
Tl^+ flux data were analyzed using Excel (Microsoft Corp, Redmond, Wash.) with XLfit add-in (IDBS, Guildford, Surrey, UK), OriginPro (Origin Lab, Northampton, Mass.), and GraphPad Prism (GraphPad Software, San Diego, Calif., USA) software. Raw data were opened in Excel and each data point in a given trace was divided by the first data point from that trace (static ratio) followed by subtraction of data points from control traces generated with vehicle controls. The slope of the fluorescence increase beginning 5 s after Tl^+ addition and ending 15 s after Tl^+ addition was calculated.
To perform Tl+ flux assays, stably transfected T-Rex-HEK-293 cells expressing AnKir1 channels were cultured overnight in 384-well plates (20,000 cells/20 μL/well), black-walled, clear-bottomed BD Pure Coat amine-coated plates (BD, Bedford, Mass.) with a plating media containing DMEM, 10% dialyzed FBS and 1 μg/mL tetracycline. […] Following 1 hr incubation at room temperature, the dye-loading solution was washed from the plates and replaced with 20 μL/well of assay buffer.

An. gambiae [1] = experiment: blood meal processing, abdominal diameter; type: in vivo, Anopheles gambiae; details: topical, ED30 dose of VU041 after engorgement
Method: Blood meal processing studies were performed with similar methods, with the exception that An. gambiae were blood-fed on anesthetized mice. All methods were carried out in accordance with Vanderbilt Institutional Animal Care and Use Committee approval. Upon completion of blood feeding, female mosquitoes with fully distended abdomens were selected, and 200 nL of compound at a non-lethal concentration (1 μg/mg) was applied directly to the abdomen. Any mosquito that died during the 24 h observation period was excluded from the analysis. Images of the abdomens were acquired at 0, 2, 5, 8, and 24 h through the dorsal cuticle; abdomens were measured at the widest point. Images were captured using bright-field illumination on a Nikon 90i light microscope (Nikon Corp., Tokyo, Japan) connected to a Photometrics CoolSNAP HQ2 high-sensitivity monochrome CCD camera (Roper Scientific, Ottobrunn, Germany). Digital images were acquired using Nikon Advanced Research NIS-Elements software. Mean abdominal diameters were compared using one-way ANOVA with a Tukey's post-hoc analysis (Prism 6, Graphpad Software, La Jolla, Calif.).

[2] = solubility limit in feeding solution
Ae. aegypti = experiment: topical toxicity bioassay in adult female Ae. aegypti; type: in vivo, Aedes aegypti; details: 24 h
Method: Topical toxicity bioassays in adult female Ae. aegypti (LVP and PR strains) were performed. […] A solvent-only treatment was included in each experiment as a negative control. Treated mosquitoes were transferred to small cages with access to 10% sucrose and held under rearing conditions for 24 h. The efficacy of a dose was measured as the percentage of treated mosquitoes in a cage that were flightless or dead at 24 h. Four to eight replicates of 10 mosquitoes were performed per dose. The ED50 values were determined using a non-linear curve fit analysis (log [inhibitor] vs. response variable-slope) in Prism 6 (Graphpad Software).
Six replicate experiments of 10 mosquitoes each were performed.

An. gambiae [3] = experiment: topical toxicity bioassay in adult female An. gambiae; type: in vivo, Anopheles gambiae; details: for ED50 (95% confidence limits), Akron Strain / ED50 (95% confidence limits), G3 Strain: topical, synergists 500 ng/insect four hours prior
Method: Topical toxicity bioassays were performed on non-blood-fed adult female mosquitoes. The mosquitoes were chilled on ice for 1-3 minutes, during which 200 nL of compound (dissolved in 95% ethanol) was applied onto the abdomen of each insect with a handheld Hamilton® micro-applicator. […] […] The three resulting ED50 values were averaged. An ethanol-only treatment was included in each experiment as a negative control. Treated mosquitoes were transferred to small cages with access to 10% sucrose and held under rearing conditions for 24 h. Mortality was recorded at 24 h.

Chain of AnKir1 (A0A075M2J8 1-555): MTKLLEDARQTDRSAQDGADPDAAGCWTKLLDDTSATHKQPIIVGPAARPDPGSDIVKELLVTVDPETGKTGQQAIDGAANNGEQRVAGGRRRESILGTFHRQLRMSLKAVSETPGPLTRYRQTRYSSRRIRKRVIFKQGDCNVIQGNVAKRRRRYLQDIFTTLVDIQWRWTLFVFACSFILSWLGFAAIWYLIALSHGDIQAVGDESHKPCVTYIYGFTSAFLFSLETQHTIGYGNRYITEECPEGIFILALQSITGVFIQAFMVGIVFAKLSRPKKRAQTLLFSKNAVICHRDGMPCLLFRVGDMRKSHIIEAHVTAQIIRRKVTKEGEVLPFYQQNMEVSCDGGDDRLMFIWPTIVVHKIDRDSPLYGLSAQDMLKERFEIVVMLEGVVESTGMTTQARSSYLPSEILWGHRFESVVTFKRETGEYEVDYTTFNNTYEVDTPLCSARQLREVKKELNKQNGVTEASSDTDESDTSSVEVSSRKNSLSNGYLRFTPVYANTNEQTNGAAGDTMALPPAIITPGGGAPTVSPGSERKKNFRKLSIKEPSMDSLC

Structure (SMILES): O=C(Cn1nc(C(F)(F)F)c2c1CCCC2)N1CCCc2ccccc21 [VU041, 1-(3,4-dihydroquinolin-1(2H)-yl)-2-(3-(trifluoromethyl)-4,5,6,7-tetrahydro-1H-indazol-1-yl)ethan-1-one]
- IC50 (AnKir1; SAR libraries, read-out: AnKir1 IC50): 2.3 µM
- IC50 (AnKir1; means (n = 3), selectivity panel, read-out: IC50 μM (95% Cl)): 2.5 µM
- abdominal diameter over 24 h after blood feeding (An. gambiae [1]): did not thereafter change much
- solubility ([2]; 5% (wt/vol) sucrose solution, water): 200 µM (≈ 72.7 µg/mL)
- approximate ED50 (Ae. aegypti; topical, LVP strain): ~3.24 μg/mg mosquito
- enhancement of toxicity by inhibition of CYP450s in the AKRON strain over the G3 strain (An. gambiae [3]; Akron strain): 3 fold
- enhancement of efficacy by PBO pretreatment (An. gambiae [3]; G3 strain): ~3 fold
- enhancement of toxicity by DEF pre-treatment (An. gambiae [3]; G3 strain): did not enhance toxicity
- ED50 (95% confidence limits), Akron Strain (An. gambiae [3]; 24 h, Akron strain): 2.8 (2.1-4.1) A μg/mg
- ED50 (95% confidence limits), G3 Strain (An. gambiae [3]; 24 h, G3 strain): 1.8 (0.9-3.1) A μg/mg

Structure (SMILES): O=C(Cn1nc(C(F)(F)F)c2c1CCCC2)NC1CCC1 [VU937]
- AnKir1 IC50 (μM) (AnKir1; SAR libraries, listed as 18): inactive
- AnKir1 IC50 (μM) (AnKir1; SAR libraries, listed as Compound 18): not tolerated
- abdominal diameter over 24 h after blood feeding (An. gambiae [1]): decreased significantly over 24 h
- solubility limit ([2]; 5% sucrose solution): 700 µM (≈ 211 µg/mL)
- topical toxicity (Ae. aegypti; adult females): not toxic
- topical toxicity (An. gambiae [3]; adult females, 24 h): not toxic
- ED50 (95% confidence limits), Akron Strain (An. gambiae [3]; 24 h, Akron strain): >10 µg/mg
- ED50 (95% confidence limits), G3 Strain (An. gambiae [3]; 24 h, G3 strain): >10 µg/mg
